From paper PMC5218480 (PLoS ONE, 2017)

Tested on: MV-4-11 cells
Assay: Gene expression microarray analysis (Affymetrix PrimeView) and GSEA
Assay type: cell-based, human
Design: RFU PODN (11730768_x_at) / Fold change /veh PODN (11730768_x_at) / RFU LINC00158 (11744669_a_at) / Fold change /veh LINC00158 (11744669_a_at) / RFU DUSP10 (11751237_a_at) / Fold change /veh DUSP10 (11751237_a_at) / RFU ID3 (11757404_x_at) / Fold change /veh ID3 (11757404_x_at) / RFU PLEKHG5 (11737974_s_at) / Fold change /veh PLEKHG5 (11737974_s_at) / RFU LRRC4B (11730491_at) / Fold change /veh LRRC4B (11730491_at) / RFU GIMAP4 (11747438_a_at) / Fold change /veh GIMAP4 (11747438_a_at) / RFU KRT8 (11758183_x_at) / Fold change /veh KRT8 (11758183_x_at) / RFU CNN1 (11734310_a_at) / Fold change /veh CNN1 (11734310_a_at) / RFU VPS37D (11726825_at) / Fold change /veh VPS37D (11726825_at) / RFU C10orf10 (11716522_x_at) / Fold change /veh C10orf10 (11716522_x_at) / RFU KIR2DL2 /// KIR2DL4 /// KIR2DL5A /// KIR2DL5B /// KIR2DS1 /// KIR2DS2 /// KIR2DS3 /// KIR2DS4 /// KIR3DL3 /// KIR3DL3 /// KIR3DS1 (11738374_at) / Fold change /veh KIR2DL2 /// KIR2DL4 /// KIR2DL5A /// KIR2DL5B /// KIR2DS1 /// KIR2DS2 /// KIR2DS3 /// KIR2DS4 /// KIR3DL3 /// KIR3DL3 /// KIR3DS1 (11738374_at) / RFU C1QL1 (11718748_at) / Fold change /veh C1QL1 (11718748_at) / RFU TMPRSS4 (11747572_a_at) / Fold change /veh TMPRSS4 (11747572_a_at) / RFU HAMP (11756126_x_at) / Fold change /veh HAMP (11756126_x_at) / RFU RNFT2 (11725882_a_at) / Fold change /veh RNFT2 (11725882_a_at) / RFU NR4A2 (11747474_a_at) / Fold change /veh NR4A2 (11747474_a_at) / RFU ABCC12 (11746883_a_at) / Fold change /veh ABCC12 (11746883_a_at) / RFU TMEM136 (11760407_x_at) / Fold change /veh TMEM136 (11760407_x_at) / RFU CLDN22 /// WWC2 (11732394_at) / Fold change /veh CLDN22 /// WWC2 (11732394_at) / RFU HLA-DPB1 (11760878_x_at) / Fold change /veh HLA-DPB1 (11760878_x_at) / RFU SPINT1 (11716480_a_at) / Fold change /veh SPINT1 (11716480_a_at) / RFU GAP43 (11754022_s_at) / Fold change /veh GAP43 (11754022_s_at) / RFU A4GNT (11735810_at) / Fold change /veh A4GNT (11735810_at) / RFU PRB3 (11715151_x_at) / Fold change /veh PRB3 (11715151_x_at) / RFU TUBB4B (11761932_at) / Fold change /veh TUBB4B (11761932_at) / RFU CAPN14 (11732068_a_at) / Fold change /veh CAPN14 (11732068_a_at) / RFU TMCC2 (11721928_a_at) / Fold change /veh TMCC2 (11721928_a_at) / RFU IRGQ (11745062_a_at) / Fold change /veh IRGQ (11745062_a_at) / RFU FAM174B (11720279_a_at) / Fold change /veh FAM174B (11720279_a_at) / RFU TMPRSS4 (11748680_a_at) / Fold change /veh TMPRSS4 (11748680_a_at) / RFU FAM212B (11763350_a_at) / Fold change /veh FAM212B (11763350_a_at) / RFU PLEKHG5 (11743358_a_at) / Fold change /veh PLEKHG5 (11743358_a_at) / RFU ZSCAN30 (11745921_a_at) / Fold change /veh ZSCAN30 (11745921_a_at) / RFU CMKLR1 (11741424_a_at) / Fold change /veh CMKLR1 (11741424_a_at) / RFU LOC101060620 /// MAPK8IP1 (11723275_at) / Fold change /veh LOC101060620 /// MAPK8IP1 (11723275_at) / RFU SPTSSB (11747773_x_at) / Fold change /veh SPTSSB (11747773_x_at) / RFU PRSS12 (11739890_at) / Fold change /veh PRSS12 (11739890_at) / RFU BIN1 (11741810_x_at) / Fold change /veh BIN1 (11741810_x_at) / RFU WNT11 (11732464_a_at) / Fold change /veh WNT11 (11732464_a_at) / RFU C10orf10 (11716521_a_at) / Fold change /veh C10orf10 (11716521_a_at) / RFU C5orf56 (11738089_at) / Fold change /veh C5orf56 (11738089_at) / RFU CYB561 (11721691_x_at) / Fold change /veh CYB561 (11721691_x_at) / RFU ANKRD19P (11752326_a_at) / Fold change /veh ANKRD19P (11752326_a_at) / RFU OR2T12 /// OR2T33 /// OR2T8 (11738714_s_at) / Fold change /veh OR2T12 /// OR2T33 /// OR2T8 (11738714_s_at) / RFU VCAN (11748164_a_at) / Fold change /veh VCAN (11748164_a_at) / RFU JSRP1 (11732532_at) / Fold change /veh JSRP1 (11732532_at) / RFU KRTAP10-11 (11738290_x_at) / Fold change /veh KRTAP10-11 (11738290_x_at) / RFU MYO3A (11730013_a_at) / Fold change /veh MYO3A (11730013_a_at) / RFU EBF3 (11725865_a_at) / Fold change /veh EBF3 (11725865_a_at) / RFU CAMK2N1 (11719241_x_at) / Fold change /veh CAMK2N1 (11719241_x_at) / RFU C5orf56 (11738088_a_at) / Fold change /veh C5orf56 (11738088_a_at) / RFU OLFML3 (11715873_a_at) / Fold change /veh OLFML3 (11715873_a_at) / RFU LOC100653217 /// NTM (11731650_a_at) / Fold change /veh LOC100653217 /// NTM (11731650_a_at) / RFU MAPK11 (11762145_a_at) / Fold change /veh MAPK11 (11762145_a_at) / RFU FIZ1 (11724087_x_at) / Fold change /veh FIZ1 (11724087_x_at) / RFU OASL (11726364_x_at) / Fold change /veh OASL (11726364_x_at) / RFU SOX15 (11748057_x_at) / Fold change /veh SOX15 (11748057_x_at) / RFU CD79A (11719716_a_at) / Fold change /veh CD79A (11719716_a_at) / RFU HIST1H1D (11736915_at) / Fold change /veh HIST1H1D (11736915_at) / RFU CASKIN2 (11723855_a_at) / Fold change /veh CASKIN2 (11723855_a_at) / RFU LOC730098 (11760151_x_at) / Fold change /veh LOC730098 (11760151_x_at) / RFU OR4N2 (11742367_at) / Fold change /veh OR4N2 (11742367_at) / RFU PRRT2 (11749266_a_at) / Fold change /veh PRRT2 (11749266_a_at) / RFU SNX32 (11753110_a_at) / Fold change /veh SNX32 (11753110_a_at) / RFU CDHR5 (11726645_a_at) / Fold change /veh CDHR5 (11726645_a_at) / RFU RCAN1 (11760418_a_at) / Fold change /veh RCAN1 (11760418_a_at) / RFU FAM167A (11723789_a_at) / Fold change /veh FAM167A (11723789_a_at) / RFU FAM26E (11764081_at) / Fold change /veh FAM26E (11764081_at) / RFU ISYNA1 (11749810_s_at) / Fold change /veh ISYNA1 (11749810_s_at) / RFU ACY1 (11761880_at) / Fold change /veh ACY1 (11761880_at) / RFU 11764098_at / Fold change /veh 11764098_at / RFU SAMD14 (11745864_x_at) / Fold change /veh SAMD14 (11745864_x_at) / RFU NPB (11741838_a_at) / Fold change /veh NPB (11741838_a_at) / RFU TMPRSS6 (11731388_a_at) / Fold change /veh TMPRSS6 (11731388_a_at) / RFU KRTAP10-2 (11738614_at) / Fold change /veh KRTAP10-2 (11738614_at) / RFU ARHGAP8 /// PRR5-ARHGAP8 (11727945_x_at) / Fold change /veh ARHGAP8 /// PRR5-ARHGAP8 (11727945_x_at) / RFU KRTAP5-7 /// NADSYN1 (11734609_at) / Fold change /veh KRTAP5-7 /// NADSYN1 (11734609_at) / RFU RASL12 (11751679_a_at) / Fold change /veh RASL12 (11751679_a_at) / RFU CDKN2B (11736163_a_at) / Fold change /veh CDKN2B (11736163_a_at) / RFU PRF1 (11729649_at) / Fold change /veh PRF1 (11729649_at) / RFU, ZNF638 /// ZNF638-IT1 / Fold change vs veh, ZNF638 /// ZNF638-IT1 / RFU, PANK3 / Fold change vs veh, PANK3 / RFU, SH3YL1 / Fold change vs veh, SH3YL1 / RFU, ZEB2 / Fold change vs veh, ZEB2 / RFU, NRIP1 / Fold change vs veh, NRIP1 / RFU, PTTG1IP / Fold change vs veh, PTTG1IP / RFU, CAPN2 / Fold change vs veh, CAPN2 / RFU, MED14 / Fold change vs veh, MED14 / RFU, SNORA58 / Fold change vs veh, SNORA58 / RFU, C1orf63 / Fold change vs veh, C1orf63 / RFU, LRRFIP1 / Fold change vs veh, LRRFIP1 / RFU, NDUFAF7 / Fold change vs veh, NDUFAF7 / RFU, SLC12A2 / Fold change vs veh, SLC12A2 / RFU, IBTK / Fold change vs veh, IBTK / RFU, ESF1 / Fold change vs veh, ESF1 / Fold change vs veh, TMEM50B / RFU, TAOK1 / Fold change vs veh, TAOK1 / RFU, ACBD3 / Fold change vs veh, ACBD3 / RFU, TMA16 / Fold change vs veh, TMA16 / RFU, RWDD3 / Fold change vs veh, RWDD3 / RFU, BCAT1 / Fold change vs veh, BCAT1 / RFU, EDEM3 / Fold change vs veh, EDEM3 / RFU, TMEM33 / Fold change vs veh, TMEM33 / RFU, WDR75 / Fold change vs veh, WDR75 / RFU, AHCTF1 / Fold change vs veh, AHCTF1 / RFU, TFRC / Fold change vs veh, TFRC / RFU, ZDHHC17 / Fold change vs veh, ZDHHC17 / RFU, NOM1 / Fold change vs veh, NOM1 / RFU, ARL8B / Fold change vs veh, ARL8B / RFU, ZBTB11 / Fold change vs veh, ZBTB11 / RFU, TAMM41 / Fold change vs veh, TAMM41 / RFU, KIAA1704 /// LOC100996395 / Fold change vs veh, KIAA1704 /// LOC100996395 / RFU, ING1 / Fold change vs veh, ING1 / RFU, TRMT61B / Fold change vs veh, TRMT61B / RFU, FUBP3 / Fold change vs veh, FUBP3 / RFU, TP53 / Fold change vs veh, TP53 / RFU, TNKS2 / Fold change vs veh, TNKS2 / RFU, ZFP14 / Fold change vs veh, ZFP14 / RFU, ACTR2 / Fold change vs veh, ACTR2 / RFU, PPP3R1 / Fold change vs veh, PPP3R1 / RFU, PIK3R1 / Fold change vs veh, PIK3R1 / RFU, HNRNPA1 / Fold change vs veh, HNRNPA1 / RFU, RNF170 / Fold change vs veh, RNF170 / RFU, ZNF28 / Fold change vs veh, ZNF28 / RFU, RNGTT / Fold change vs veh, RNGTT / RFU, OGT / Fold change vs veh, OGT / RFU, BRD1 / Fold change vs veh, BRD1 / RFU, MARS / Fold change vs veh, MARS / RFU, ZNF655 / Fold change vs veh, ZNF655 / RFU, FAHD1 / Fold change vs veh, FAHD1 / RFU, BDP1 / Fold change vs veh, BDP1 / RFU, LRRCC1 / Fold change vs veh, LRRCC1 / RFU, ARID1A / Fold change vs veh, ARID1A / RFU, ZNF146 / Fold change vs veh, ZNF146 / RFU, ZNF330 / Fold change vs veh, ZNF330 / RFU, GPN3 / Fold change vs veh, GPN3 / RFU, C9orf123 / Fold change vs veh, C9orf123 / RFU, N4BP2L2 / Fold change vs veh, N4BP2L2 / RFU, ARFIP1 / Fold change vs veh, ARFIP1 / RFU, FAM179B / Fold change vs veh, FAM179B / RFU, BCL10 / Fold change vs veh, BCL10 / RFU, UHRF1BP1L / Fold change vs veh, UHRF1BP1L / RFU, BET1 / Fold change vs veh, BET1 / RFU, CNOT2 / Fold change vs veh, CNOT2 / RFU, ZNF268 / Fold change vs veh, ZNF268 / Fold change vs veh, ZNF507 / RFU, DGCR2 / Fold change vs veh, DGCR2 / RFU, WDSUB1 / Fold change vs veh, WDSUB1 / Fold change vs veh, HSP90B1 /// MIR3652 / RFU, ADSS / Fold change vs veh, ADSS / RFU, GK / Fold change vs veh, GK / RFU, ZNF148 / Fold change vs veh, ZNF148 / RFU, TAF9 / Fold change vs veh, TAF9 / RFU, SLC1A5 / Fold change vs veh, SLC1A5 / RFU, SLMO2 / Fold change vs veh, SLMO2 / RFU, ABCC4 / Fold change vs veh, ABCC4 / RFU, LOC101060439 /// RAP1B / Fold change vs veh, LOC101060439 /// RAP1B / RFU, RFX7 / Fold change vs veh, RFX7 / RFU, GTPBP10 / Fold change vs veh, GTPBP10 / RFU, CNEP1R1 / Fold change vs veh, CNEP1R1 / RFU, BIVM-ERCC5 /// ERCC5 / Fold change vs veh, BIVM-ERCC5 /// ERCC5 / RFU, ILF3 / Fold change vs veh, ILF3 / RFU 11762660_at / Fold change /veh 11762660_at / RFU VCAN (11757783_s_at) / Fold change /veh VCAN (11757783_s_at) / RFU DDX43 (11728927_at) / Fold change /veh DDX43 (11728927_at) / RFU KRT8 (11758188_x_at) / Fold change /veh KRT8 (11758188_x_at) / RFU NKD1 (11759106_at) / Fold change /veh NKD1 (11759106_at) / RFU SRD5A1 (11742802_a_at) / Fold change /veh SRD5A1 (11742802_a_at) / RFU TPSAB1 /// TPSB2 (11721975_s_at) / Fold change /veh TPSAB1 /// TPSB2 (11721975_s_at) / RFU GSTM3 (11746129_a_at) / Fold change /veh GSTM3 (11746129_a_at) / RFU IL23R (11737362_x_at) / Fold change /veh IL23R (11737362_x_at) / RFU TMEM51 (11727254_a_at) / Fold change /veh TMEM51 (11727254_a_at) / RFU PIWIL2 (11732686_x_at) / Fold change /veh PIWIL2 (11732686_x_at) / RFU ORM1 (11744905_x_at) / Fold change /veh ORM1 (11744905_x_at) / RFU CCDC152 (11743942_at) / Fold change /veh CCDC152 (11743942_at) / RFU ECM1 (11717891_a_at) / Fold change /veh ECM1 (11717891_a_at) / RFU IL23R (11748794_a_at) / Fold change /veh IL23R (11748794_a_at) / RFU TNFAIP8L3 (11732012_x_at) / Fold change /veh TNFAIP8L3 (11732012_x_at) / RFU MBOAT4 (11741988_at) / Fold change /veh MBOAT4 (11741988_at) / RFU 11764193_at / Fold change /veh 11764193_at / RFU TMEM53 (11763286_at) / Fold change /veh TMEM53 (11763286_at) / RFU MAGEB2 (11727129_at) / Fold change /veh MAGEB2 (11727129_at) / RFU TMEM200A (11744735_a_at) / Fold change /veh TMEM200A (11744735_a_at) / RFU CCDC152 (11751479_a_at) / Fold change /veh CCDC152 (11751479_a_at) / RFU FAM211A (11726209_a_at) / Fold change /veh FAM211A (11726209_a_at) / RFU RGS16 (11746705_a_at) / Fold change /veh RGS16 (11746705_a_at) / RFU VCAN (11755009_s_at) / Fold change /veh VCAN (11755009_s_at) / RFU RHOB (11743442_s_at) / Fold change /veh RHOB (11743442_s_at) / RFU RGS16 (11720943_a_at) / Fold change /veh RGS16 (11720943_a_at) / RFU RGS16 (11720944_at) / Fold change /veh RGS16 (11720944_at) / RFU, VPS4B / Fold change vs veh, VPS4B / RFU, CREB1 / Fold change vs veh, CREB1 / RFU, DNAJC13 / Fold change vs veh, DNAJC13 / RFU, GNAQ / Fold change vs veh, GNAQ / RFU, CDK5R1 / Fold change vs veh, CDK5R1 / RFU, ZRANB3 / Fold change vs veh, ZRANB3 / RFU, CUL4A / Fold change vs veh, CUL4A / RFU, CCNY / Fold change vs veh, CCNY / RFU, UFL1 / Fold change vs veh, UFL1 / RFU, COG3 / Fold change vs veh, COG3 / RFU, DIAPH2 / Fold change vs veh, DIAPH2 / RFU, SKA2 / Fold change vs veh, SKA2 / RFU, AFF3 / Fold change vs veh, AFF3 / RFU, LMF1 / Fold change vs veh, LMF1 / RFU, IPO11 / Fold change vs veh, IPO11 / RFU, DFFB / Fold change vs veh, DFFB / RFU, FOXP1 / Fold change vs veh, FOXP1 / RFU, CARD8 / Fold change vs veh, CARD8 / RFU, STRN3 / Fold change vs veh, STRN3 / RFU, ADK / Fold change vs veh, ADK / RFU, RASSF2 / Fold change vs veh, RASSF2 / RFU, WIPF1 / Fold change vs veh, WIPF1 / RFU, LARP1B / Fold change vs veh, LARP1B / RFU, RASA1 / Fold change vs veh, RASA1 / RFU, RB1 / Fold change vs veh, RB1 / RFU, PPFIA1 / Fold change vs veh, PPFIA1 / RFU, MAT2A / Fold change vs veh, MAT2A / RFU, CCT5 / Fold change vs veh, CCT5 / RFU, WDR92 / Fold change vs veh, WDR92 / RFU, CUX1 / Fold change vs veh, CUX1 / RFU, TTC7A / Fold change vs veh, TTC7A / RFU, TMEM135 / Fold change vs veh, TMEM135 / RFU, DEPTOR / Fold change vs veh, DEPTOR / RFU, CPM / Fold change vs veh, CPM / RFU, DNAJB6 / Fold change vs veh, DNAJB6 / RFU, CACNA2D3 / Fold change vs veh, CACNA2D3 / RFU, DTX4 / Fold change vs veh, DTX4 / RFU, TFCP2 / Fold change vs veh, TFCP2 / RFU, GMCL1 /// GMCL1P1 / Fold change vs veh, GMCL1 /// GMCL1P1 / RFU, AEBP2 / Fold change vs veh, AEBP2 / RFU, SNHG1 /// SNORD22 /// SNORD25 /// SNORD26 /// SNORD27 /// SNORD28 /// SNORD29 /// SNORD31 / Fold change vs veh, SNHG1 /// SNORD22 /// SNORD25 /// SNORD26 /// SNORD27 /// SNORD28 /// SNORD29 /// SNORD31 / Fold change (Aza/veh), C12orf56 (ProbeSet 11735607_a_at) / Fold change (ACY-1035/veh), C12orf56 (ProbeSet 11735607_a_at) / Fold change (Aza/veh), FGFR1OP (ProbeSet 11751329_s_at) / Fold change (ACY-1035/veh), FGFR1OP (ProbeSet 11751329_s_at) / Fold change (Aza/veh), VPS36 (ProbeSet 11739960_a_at) / Fold change (ACY-1035/veh), VPS36 (ProbeSet 11739960_a_at) / RFU SYPL1 (11715823_x_at) / Fold change /veh SYPL1 (11715823_x_at) / RFU IGFBP7 (11715501_s_at) / Fold change /veh IGFBP7 (11715501_s_at) / RFU REEP3 (11722064_at) / Fold change /veh REEP3 (11722064_at) / RFU IGLL1 (11728026_x_at) / Fold change /veh IGLL1 (11728026_x_at): dose or concentration left out as unconfirmed
Conditions: ProbeSet 11733831_s_at; LIST D

Structure (SMILES): Nc1ncn([C@@H]2O[C@H](CO)[C@@H](O)[C@H]2O)c(=O)n1 [azacitidine]
- Fold change vs veh, GMCL1 /// GMCL1P1: 0.81
